Data taken from patent USRE44962E1, “Genetically engineered plant cells and plants exhibiting resistance to glutamine synthetase inhibitors, DNA fragments and recombinants for use in the production of said cells and plants” (Bayer Cropscience N.V., priority 1986, dated 2014).

Tested on: S. lividans
Assay type: cell-based
Details: relative to S. lividans without the plasmid

**Q.** CC(NC(=O)C(C)NC(=O)C(N)CCP(C)(=O)O)C(=O)O (stereo not shown) [Bialaphos] was tested. Which “resistance to Bialaphos of S. lividans strains containing pBG20” value did it give?
**A.** The value was “more than 500 times”.
